In paper PMC3779154, “Identification of Therapeutic Candidates for Chronic Lymphocytic Leukemia from a Library of Approved Drugs” (PLoS ONE, 2013):
Read-outs that look alike come from different tables or passages of the source.

What was measured:
[1] = tested on: lymphocytes from normal donors; experiment: qHTS luminescent ATP cell viability assay, primary screen, normal donor lymphocytes; details: differential efficacy or IC50 shift >5-fold
Text: (§1) Lymphocytes from 13 CLL treatment naïve patients (Table 1 ) and 5 normal donors were obtained by lymphapheresis with written informed consent and isolated by gradient centrifugation using Lymphocyte Separation Medium (MP Biomedicals, Solon, OH) and used fresh or cryopreserved in liquid nitrogen in 10% dimethyl sulfoxide, 90% FCS. CLL patients were consented on the institutional review board (IRB) approved at the National Heart, Lung, and Blood Institute (NHLBI, Office of Clinical Affairs, Bldg 10, CRC. Room 6-5140, Bethesda, Maryland 20892-1608) with protocol 04-H-0012 and samples from normal donors were collected by the Department of Transfusion Medicine, National Institutes of Health (NIH). This study was approved by the IRB mentioned above. Fresh cells were temporally placed on ice and plated for screening within 3 hrs of apheresis. Frozen cells were thawed the night before the assay and incubated in T175 flask in AIM V medium to recover overnight. Analysis of IGHV gene status was performed as described. CLL samples were cultured in AIM V serum free medium (Gibco-Invitrogen, Long Island, NY).
(§2) Compound formatting and qHTS were performed as described previously. The final concentration of the NPC compounds in the 4 µL assay volume ranged from 57 µM to 0.7 nM in 1:5 dilution steps. The positive control plate format was as follows: columns 1 and 3, DMSO only; column 2, doxorubicin, a known cytotoxic chemotherapy agent in a 1:2 dilution series from 10 µM to 5 nM in DMSO; and column 4, doxorubicin at 10 µM in DMSO.
To determine compound activity in the qHTS assay, the concentration-response data for each sample was plotted and modeled by a four parameter logistic fit yielding IC50 and efficacy (maximal response) values as previously described. […] Briefly, raw plate reads for each titration point were first normalized relative to the positive control compound (100%) and DMSO-only wells (basal, 0%), and then corrected by applying a pattern correction algorithm using compound-free control plates (i.e., DMSO-only plates) at the beginning and end of the NPC compound plate stack. […]

[2] = tested on: lymphocytes from normal donors; details: for potency shift between CLL and normal donor samples: fresh cells, normal IC50 vs CLL IC50
Description: (§3) Cell viability was measured using a luciferase-based ATP quantitation assay (CellTiter-Glo^TM, Promega). The intracellular ATP content indicates the number of viable (i.e. metabolically competent) cells after compound treatment. Four µL of CLL cells resuspended in AIM medium at 1,330,000 cells/ml, were dispensed into each well of white, solid bottom, 1536-well tissue culture–treated plates using a Multidrop-Combi dispenser and incubated overnight. After that, a total of 23 nL of compounds at 8 selected concentrations from the NPC library or positive control (10 mM stock of doxorubicin hydrochloride) in DMSO was transferred to each well of the assay plate using a pintool (Kalypsys, San Diego, CA), and the plates were further incubated at 37 °C with 5% CO2 for 24 hours to allow the reaction. Then 4µL of CellTilter-Glo luminescent substrate mix was added to each well. The plate was incubated at room temperature for 15 minutes. The plates were measured on a ViewLux plate reader (PerkinElmer) with clear filter.
(§4) These compounds were then re-tested in the cell viability assay using 12 point titrations with concentration ranging from 57 µM to 0.3 nM with 1:3 dilution.
(§5) Fresh primary cells were also obtained from two unaffected normal donors and seven CLL patients whose blood samples were collected within hours of apheresis and which had not been included in our previous experiments.

[3] = tested on: human thioredoxin reductase; parameters: method as in PMID 19665452; details: NADPH-reduced form; cited from earlier work
[4] = tested on: lymphocytic leukemia P388; parameters: method as in PMID 6778607; details: cited from earlier work
caspase-3/7 = experiment: Caspase-Glo 3/7 activation assay in CLL samples; assay type: cell-based, human; details: CLL samples, 24 hours, read-out: EC50 caspase-3/7 activity
Description: The effect of selected compounds on caspase activity was measured using a homogeneous luminescent method (Caspase-Glo® 3/7, 8 and 9 kits, Promega, Madison, WI). Briefly in this assay, caspase induced by cells cleaves a pro-luciferin substrate where a tetrapeptide caspase substrate - DEVD (asp-glu-val-asp) is cleaved to free aminoluciferin, which can be used as a substrate by luciferase yielding a bioluminescent signal. The luminescent signal is proportional to the amount of caspase activity present in the cells. Cells were dispensed in culture medium at 5,000/cells/5uL/well in 1536-well white/solid-bottom assay plates. The cells were incubated for overnight at 37°C. The compounds (23nL/well) were added via the pin tool. The treated cells were further incubated for 24 h at 37°C, followed by the addition of the Caspase-Glo 3/7, 8 or 9 reagents at 5uL/well. After a 30 min incubation at room temperature, the luminescence intensity of the assay plates was measured using a ViewLux Plate Reader. The caspase activity was normalized to DMSO control.

[5] = tested on: fresh CLL patient lymphocytes; details: read-out: IC50 CLL, average of cells from 7 CLL patients, fresh, Figure 5
Description: (§6) Cell viability was measured using a luciferase-based ATP quantitation assay (CellTiter-Glo^TM, Promega). The intracellular ATP content indicates the number of viable (i.e. metabolically competent) cells after compound treatment. […] After that, a total of 23 nL of compounds at 8 selected concentrations from the NPC library or positive control (10 mM stock of doxorubicin hydrochloride) in DMSO was transferred to each well of the assay plate using a pintool (Kalypsys, San Diego, CA), and the plates were further incubated at 37 °C with 5% CO2 for 24 hours to allow the reaction. Then 4µL of CellTilter-Glo luminescent substrate mix was added to each well. The plate was incubated at room temperature for 15 minutes. The plates were measured on a ViewLux plate reader (PerkinElmer) with clear filter. […] The test volume of 5,000 cells/4 μL/well was selected as the final assay condition in cell density tests based on the assay performance statistics: signal/background ratio, coefficient of variation and Z’-factor (data not shown).
as §5

[6] = tested on: lymphocytes from normal donors; experiment: cells; details: Homo sapiens, Lymphocyte, read-out: IC50 normal
Description: as §3, §4, §5

[7] = tested on: fresh CLL patient lymphocytes; experiment: cells; details: Homo sapiens, Lymphocyte
Description: as §6, §5

CLL = tested on: CLL; parameters: method as in PMID 20603650; details: oral, single-agent, treated CLL patients; cited from earlier work
primary CLL cells = experiment: qHTS luminescent ATP cell viability assay (CellTiter-Glo), primary screen, frozen CLL patient cells; assay type: cell-based, human; details: CLL cells, 24 h, Figure 1
Text: as §1, §2
To determine compound activity in the qHTS assay, the concentration-response data for each sample was plotted and modeled by a four parameter logistic fit yielding IC50 and efficacy (maximal response) values as previously described. Data normalization and curve fitting were performed using in-house informatics tools. Briefly, raw plate reads for each titration point were first normalized relative to the positive control compound (100%) and DMSO-only wells (basal, 0%), and then corrected by applying a pattern correction algorithm using compound-free control plates (i.e., DMSO-only plates) at the beginning and end of the NPC compound plate stack. […] In brief, Class 1.1 and 1.2 were the highest-confidence complete CRCs containing upper and lower asymptotes with efficacies ≥ 80% and < 80%, respectively. Class 2.1 and 2.2 were incomplete CRCs having only one asymptote with efficacy ≥ 80% and < 80%, respectively.
Compounds from the primary qHTS screen were further classified into three categories according to the quality of curve fit and efficacy.

[8] = tested on: ME-180 human cervical carcinoma cell line; experiment: Cell viability assay, ME-180 cells (NPC library profiling)
Text: Based on the definition of actives, inactives and inconclusive mentioned above, compounds were further clustered hierarchically using Spotfire DecisionSite 8.2 (Spotfire Inc., Cambridge, MA) based on their activity outcomes from the primary screen across a wide variety of cell viability assays against different cell lines or primary patient cells. Each compound was converted into an integer which represents its activity outcome in each cell viability assay. […] Integer 2 represents compounds in “inconclusive” category which is corresponding to light red in the heat map. […] Compounds not tested in the assay were labeled as 4 and shown as grey in the heat map.

[9] = tested on: normal and solid tumor cell lines

## CC(=O)OC[C@H]1O[C@@H]([S-])[C@H](OC(C)=O)[C@@H](OC(C)=O)[C@@H]1OC(C)=O.CCP(CC)CC.[Au+] [auranofin]
[1]
  differential cytotoxicity between CLL cells and lymphocytes from normal donors: differential cytotoxicity
[2]
  potency shift between CLL and normal donor samples: 30 fold
[2]; listed as Auranofin
  potency shift between CLL and normal donor samples: greater than 30 fold
[2]; read-out: IC50 normal, average of 2 normal donors, fresh, Figure 5
  IC50: 2.05 µM
[3]
  inhibition of human thioredoxin reductase: strongly inhibit
[4]
  life span of mice inoculated with lymphocytic leukemia P388: effective in increasing the life span
caspase-3/7
  EC50: < 0.1 µM
[5]
  IC50: < 1 µM
[5]; listed as Auranofin
  IC50: 0.07 µM

## OC[C@H]1O[C@H]([S-])[C@H](O)[C@@H](O)[C@@H]1O.[Au+] [aurothioglucose]
[3]
  inhibition of human thioredoxin reductase: strongly inhibit

## Nc1ncn([C@@H]2O[C@H](CO)[C@@H](O)[C@H]2O)c(=O)n1 [azacitidine]
[1]
  differential cytotoxicity between CLL cells and lymphocytes from normal donors: differential cytotoxicity
[2]; at 19 µM and 57 µM, the two highest testing concentrations
  difference in efficacy between CLL and unaffected donor samples: over 40%
[2]
  potency shift between CLL and normal donor samples: about 3 fold
[2]; versus CLL cells
  decreased efficacy to normal B cells: over 40%
[6]
  IC50: 15.9 µM
[7]; read-out: IC50 CLL, average of cells from 7 CLL patients, fresh, Figure 5
  IC50: 8.1 µM
caspase-3/7; Homo sapiens
  EC50: 5.1 µM

## O=C(O)CCCc1ccc(N(CCCl)CCCl)cc1 [chlorambucil]
[7]; 24 h
  IC50: 12 to 30 µM
CLL
  frequency of complete responses: less than 5%
Primary CLL cells
  concentration-response curve class: 3

## OCC(S)CS (centres unmarked) [dimercaprol]
[1]
  differential cytotoxicity between CLL cells and lymphocytes from normal donors: differential cytotoxicity
[2]
  potency shift between CLL and normal donor samples: 50 fold
[6]
  IC50: 19.4 µM
caspase-3/7; Homo sapiens
  EC50: < 0.1 µM
[5]
  IC50: < 1 µM
[5]; listed as Dimercaprol
  IC50: 0.38 µM

## tyrothricin
[8]
  cytotoxicity in ME-180 cells: prominent cytotoxicity
[9]
  activity in cytotoxicity profiling assays: pan-active
  potency variation across cytotoxicity profiling assays: < 5 fold
